Reference: US10245267B2, “Biaryl amide compounds as kinase inhibitors” (NOVARTIS AG, priority 2013, dated 2019)
Like-named read-outs stand apart in the source and are kept apart here.

How the values were obtained:
b-Raf(V600E) = b-Raf(V600E) (Homo sapiens (Human), UniProt P15056, V600E); conditions: read-out: b-Raf IC-50; Table 2; Alpha Screen, ATP 10 μM, 3 hours reaction
[1] = biological target: C-Raf FL (full-length C-Raf protein) (Homo sapiens (Human), UniProt P04049, Y340E/Y341E); type: biochemical; conditions: read-out: c-Raf FL IC-50
C-Raf FL (full-length C-Raf protein), sequence (P04049 whole entry Y340E/Y341E): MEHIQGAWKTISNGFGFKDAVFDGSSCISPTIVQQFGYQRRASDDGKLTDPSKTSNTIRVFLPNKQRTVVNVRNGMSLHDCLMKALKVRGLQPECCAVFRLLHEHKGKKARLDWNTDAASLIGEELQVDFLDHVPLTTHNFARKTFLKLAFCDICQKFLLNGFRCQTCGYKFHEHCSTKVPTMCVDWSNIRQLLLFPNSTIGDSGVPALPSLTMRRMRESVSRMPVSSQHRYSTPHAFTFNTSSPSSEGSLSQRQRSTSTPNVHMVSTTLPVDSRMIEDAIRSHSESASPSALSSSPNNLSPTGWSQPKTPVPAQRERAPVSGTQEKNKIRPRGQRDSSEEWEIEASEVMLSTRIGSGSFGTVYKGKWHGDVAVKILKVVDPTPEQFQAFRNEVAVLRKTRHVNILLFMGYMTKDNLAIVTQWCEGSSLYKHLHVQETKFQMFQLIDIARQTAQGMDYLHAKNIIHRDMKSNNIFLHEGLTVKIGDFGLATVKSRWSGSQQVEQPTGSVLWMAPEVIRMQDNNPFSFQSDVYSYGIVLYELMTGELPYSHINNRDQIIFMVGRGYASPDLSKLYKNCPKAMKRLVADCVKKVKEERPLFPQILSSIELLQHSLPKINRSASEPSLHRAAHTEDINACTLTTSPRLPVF
C-Raf FL (full-length C-Raf protein), sequence (P63104 whole entry partner): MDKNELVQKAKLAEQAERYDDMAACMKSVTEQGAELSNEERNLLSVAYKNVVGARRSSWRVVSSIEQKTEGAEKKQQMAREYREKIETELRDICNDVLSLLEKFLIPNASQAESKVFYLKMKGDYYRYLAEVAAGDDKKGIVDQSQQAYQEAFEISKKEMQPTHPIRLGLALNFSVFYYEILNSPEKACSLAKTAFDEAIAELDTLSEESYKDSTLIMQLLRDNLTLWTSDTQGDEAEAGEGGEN

[2] = Table 2, Alpha Screen, ATP 1 uM, 1 hour reaction

b-Raf(V600E), sequence (P15056 whole entry V600E): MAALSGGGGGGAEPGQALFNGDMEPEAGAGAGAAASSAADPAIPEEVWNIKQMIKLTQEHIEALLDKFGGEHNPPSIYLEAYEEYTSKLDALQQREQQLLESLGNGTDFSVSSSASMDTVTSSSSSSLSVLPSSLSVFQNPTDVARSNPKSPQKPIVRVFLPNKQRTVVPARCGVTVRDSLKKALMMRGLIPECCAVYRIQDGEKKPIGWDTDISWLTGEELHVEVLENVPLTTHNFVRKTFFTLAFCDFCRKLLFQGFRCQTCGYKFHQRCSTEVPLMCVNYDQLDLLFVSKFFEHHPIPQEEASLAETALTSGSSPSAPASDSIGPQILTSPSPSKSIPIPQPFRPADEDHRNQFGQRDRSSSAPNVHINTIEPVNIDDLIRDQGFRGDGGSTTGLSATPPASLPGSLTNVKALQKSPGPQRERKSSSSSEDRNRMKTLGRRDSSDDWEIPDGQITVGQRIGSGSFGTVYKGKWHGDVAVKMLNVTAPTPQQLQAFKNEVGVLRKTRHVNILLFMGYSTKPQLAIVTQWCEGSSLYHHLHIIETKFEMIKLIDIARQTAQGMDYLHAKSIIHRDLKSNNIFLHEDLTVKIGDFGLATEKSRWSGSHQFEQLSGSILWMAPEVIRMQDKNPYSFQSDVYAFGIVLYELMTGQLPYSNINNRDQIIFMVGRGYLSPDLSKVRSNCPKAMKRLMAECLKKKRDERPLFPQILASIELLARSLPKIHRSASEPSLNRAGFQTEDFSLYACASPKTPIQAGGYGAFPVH

IC50 (b-Raf(V600E))	IC50 [1, 2]	Compound	IC50 [1]
0.9 nM	0.2 nM	Cc1ccc(NC(=O)c2cccc(C(F)(F)F)c2)cc1-c1cc(N2CCOCC2)c(OCCO)nn1 [Example 590, N-(3-(6-(2-hydroxyethoxy)-5-morpholinopyridazin-3-yl)-4-methylphenyl)-3-(trifluoromethyl)benzamide]	
4 nM	1.6 nM	CCNc1nc(-c2cc(C(=O)Nc3cccc(C(F)(F)F)c3)ccc2C)cc(N2CCOCC2)n1 [Example 710, 3-(2-(ethylamino)-6-morpholinopyrimidin-4-yl)-4-methyl-N-(3-(trifluoromethyl)phenyl) benzamide]	
2 nM		CCNc1nc(-c2cc(NC(=O)c3ccnc(C(F)(F)F)c3)ccc2C)cc(N2CCOCC2)n1 [Example 719, N-(3-(2-(ethylamino)-6-morpholinopyrimidin-4-yl)-4-methylphenyl)-2-(trifluoromethyl) isonicotinamide]	
		Cc1ncc(NC(=O)c2cccc(C(F)(F)F)c2)cc1-c1cc(N2CCOCC2)nc(NC[C@@H](C)O)n1 [Example 743, (R)—N-(5-(2-((2-hydroxypropyl)amino)-6-morpholinopyrimidin-4-yl)-6-methylpyridin-3-yl)-3-(trifluoromethyl) benzamide]	0.8 nM
